Measured values reported in PMC9147645, “Food-Derived β-Carboline Alkaloids Ameliorate Lipid Droplet Accumulation in Human Hepatocytes” (Pharmaceuticals, 2022).
Read-outs that look alike come from different tables or passages of the source.

Columns and labels:
[1] = Cytotoxicity / lipocytotoxicity assay (CCK-8); assay type: cell-based; conditions: human; for IC50 at 24 h: HepG2, values given in the text, read-out: IC50 (cytotoxicity, cell viability)
Method: (§1) HepG2 cells were purchased from the American Type Culture Collection (ATCC) (Manassas, VA, USA). High-glucose DMEM containing 10% heat-inactivated FBS and 1% penicillin–streptomycin was maintained under a humidified atmosphere at 37 °C with 5% CO2, as indicated in the Supplementary Materials. HepG2 cells (1.5 × 10^4/well) in DMEM supplemented with 10% FBS were seeded into a 96-well plate. A cytotoxicity assay was performed according to the manufacturer’s protocol using CCK-8 (Dojindo Molecular Technologies), as indicated in the Supplementary Materials (Materials and Methods). […]
(§2) 2 1.2. Cytotoxicity assay […] HepG2 cells (1.5 × 10^4/well) in DMEM supplemented with 10% FBS were under reduced pressure, and H2O (25 ml) was added. Then the solution was seeded into a 96-well plate. The cytotoxicity assay was done using CCK-8 extracted with AcOEt after adjusted to 9–10 with aq. NaOH solution. The organic (Dojindo Molecular Technologies) according to the manufacturer's protocol. […]
(§3) Compounds 1 and 3. To a stirred soln. Compound 10 (218 mg, 1.00 mmol), 5- Technologies, Rockville, USA) according to the manufacturer ’sinstructions. Cell Acetoxymethylfurfural (1, 168 mg, 1.00 mmol) and Nano CuO (7.955 mg, 0.1 suspension (100 μl/well) was inoculated in a 96-well plate (Iwaki, Japan), and mmol) were added 6 ml of DMF. The mixture was stirred at 90℃ for 16 h. The pH once monolayers were observed, treatments were added (n = 3 per each of the aqueous solution was adjusted to 9–10 with aq NaOH solution after adding treatment). Cells were then pre-incubated with the treatments for 24 h before H O. After extracting the solution with AcOEt, the organic layer was washed with assay to determine cell viability.Absorbance was measured at 450 nm using a 2 plate reader (PerkinElmer-ARVO-MX-ID 10533234, Japan). […]
(§4) [5-(hydroxymethyl)-2-furanyl]-1H-pyrido[3,4-b]indole-3-carboxylic acid (2, CAS culture medium was removed from each dish, and cells were washed Registry Number 896466-77-6); flazine methyl ester acetate (3, CAS Registry and rinsed with 1× PBS. Cells were then fixed for 20 min in 10% formalin and Number 104537-95-3); flazin (4, CAS Registry Number 100041-05-2); washed twice using PBS. Then, Oil Red O dye was added to the dishes and incubated for 20 min. Finally, the dye was removed from each dish and cells 5

HepG2 cells [2] = assay: Lipid droplet accumulation inhibition (LDAI) assay, Oil Red O, oleic acid-loaded cells; assay type: cell-based, human; conditions: for Induction of LDs: HepG2
Method: LDAI assay: LDAI activity was determined using an Oil Red O assay with 24-well plates (n = 4 per treatment). Staining of LDs in cultured hepatocytes was performed according to the manufacturer’s instructions, based on the Oil Red O staining assay. Briefly, HepG2 cells (1.5 × 10^4/well) were supplemented with 10% FBS, cultured, seeded in 35-mm dishes, and treated with the tested samples after 24 h. Oil Red O, a fat-soluble dye, is widely used for staining neutral lipids in LDs, as described in the Supplementary Materials. […]
2 1.2. Cytotoxicity assay dropwise under ice-cooling. […]
Lipid droplet accumulation inhibition assay and Real-Ti me LDAI acid tryptophan (9) and compound 12 were subjected to acid conversion at 90 °C accumulation in acetic acid to obtain compound 2 (1H and 13C, see in Supporting Information). Lipid droplet accumulation inhibition (LDAI) activity was determined using an Synthesis of Compound 4. To a stirred soln . compound 3 in MeOH was added oilred assay in a 24-well plate according to the manufacturer ’sinstructions (n = 4 with NaOH (2 mol/L). Compound 4 was obtained after stirringthe mixture at 65℃ per each treatment). Real-time oleic induced-LD inhibition was performed by for 5 h. (1H and 13C, see Figures S10 and S11). We also prepared similar using a Nikkon microscope. Morphological analysis of HepG2 cells after compounds without any substituent at the C-1 position in the C-ring using a one- treatment with control(-OA) and (+OA) or compound at different concentrations pot Pictet–Spengler reaction (6-8). was determined by staining with AO/EB.
Synthetic b-carboline alkaloids (1-8): 1.4. Oil Red O Staining.
CAS Registry Number of all the series of synthetic b-carboline alkaloids (1-8) HepG2 cells were cultured and treated in 35 mm dishes, as described above. were subjected to biological evaluation: 1H-Pyrido[3,4-b]indole-3-carboxylic acid, Oil Red O dye was used for LD staining. Oil Red O was dissolved in isopropanol 1-[5-[(acetyloxy)methyl]-2-furanyl]-2,3,4,9-tetrahydro-, methyl ester, (1S-trans)- as 3 mg/mL and diluted with water so that isopropanol became 60%. Oil Red O (9CI) (1,CAS Registry Number 11 5 1 0 7-75-0;11 5 1 0 7-76-1);2,3,4,9-Tetrahydro-1-solutionwasfilteredbya0.4 μm pore syringe filter.For cellular staining, the […]

[3] = system: nuclear factor erythroid 2-related factor 2 (Nrf2); conditions: hepatocytes; cited from earlier work
human HepG2 = system: human HepG2; parameters: method as in PMID 30103390; conditions: human HepG2, 180 μM; cited from earlier work
HepG2 cells [4] = assay: Cytotoxicity / lipocytotoxicity assay (CCK-8); assay type: cell-based; conditions: 0.25 mM oleic acid, 24 h, HepG2
Method: as §1, §2, §3, §4

HepG2 cells [5] = conditions: 100 μM; cited from earlier work
[6] = HepG2 cells, HepG2, DMEM loaded with fatty acid (+OA), read-out: Lipocytotoxicity (LC50), concentration at which 50% of cells died
[7] = HepG2 cells, HepG2, DMEM without fatty acid (−OA), read-out: Cytotoxicity (CC50), concentration at which 50% of cells died
[8] = Homo sapiens, HepG2, 24 h, HepG2 + 0.25 mM oleic acid, vs untreated control (+OA)

SMILES | CC50 at 24 h [1, 6] | CC50 at 24 h [1, 7] | inhibition at 400 µM (HepG2 cells [2]; [8]) | other results
COC(=O)c1cc2c(cn1)[nH]c1ccccc12 [Compound 7, methyl β-carboline-3-carboxylate] |  |  |  | CC50 at 24 h ([1]; HepG2, DMEM loaded with fatty acid (+OA), read-out: Lipocytotoxicity (LC50), concentration at which 50% of cells died): 498 µM; CC50 at 24 h ([1]; HepG2, DMEM without fatty acid (−OA), read-out: Cytotoxicity (CC50), concentration at which 50% of cells died): 390 µM; inhibition at 400 µM (HepG2 cells [2]; Homo sapiens, 24 h, HepG2 + 0.25 mM oleic acid, vs untreated control (+OA)): 25.4%
COc1c(O)cc(CO)cc1O [DHMBA, 3,5-dihydroxy-4-methoxybenzyl alcohol, reference compound] |  |  |  | Nrf2-dependent antioxidant action [3]: Nrf2-dependent antioxidant action
O=C(O)c1cc2c(cn1)[nH]c1ccccc12 [Compound 8, β-Carboline-3-carboxylic acid] | 530 µM | 549 µM | 81.8% | 
COC(=O)[C@@H]1Cc2c([nH]c3ccccc23)C(c2ccc(COC(C)=O)o2)N1 (stereo partly shown) [Compound 1, Methyl 1,2,3,4-Tetrahydro-1-(5-[(acetyloxy)methyl]-2-furanyl)-9H-pyrido [3,4-b]indole-3-carboxylic acid] | 442 µM | 488 µM | 63.2% | IC50 at 24 h ([1]; HepG2 cells): 488 µM
Oc1cc(O)c2cc(O)c(-c3cc(O)c(O)c(O)c3)[o+]c2c1 [Delphinidin] |  |  |  | Hepatic triglyceride accumulation (human HepG2): ameliorated hepatic triglyceride accumulation
COC(=O)C1Cc2c([nH]c3ccccc23)CN1 (stereo not drawn) [Compound 5, methyl 1,2,3,4-tetrahydro-β-carboline-3-carboxylate] | 488 µM | 397 µM | 42% | 
O=C(O)C1Cc2c([nH]c3ccccc23)CN1 (stereo not drawn) [Compound 6, 1,2,3,4-Tetrahydro-β-carboline-3-carboxylic acid] | 520 µM | 505 µM |  | 
COC(=O)c1cc2c([nH]c3ccccc32)c(-c2ccc(COC(C)=O)o2)n1 [Compound 3, flazin methyl ester acetate] | 131 µM | 66.8 µM |  | IC50 at 24 h ([1]; HepG2 cells): 66.9 µM; inhibition at 50 µM (HepG2 cells [2]; Homo sapiens, HepG2, 24 h, 50 μM, HepG2 + 0.25 mM oleic acid, vs untreated control (+OA)): 26%
CCCCCCCC/C=C\CCCCCCCC(=O)O [oleic acid, reference compound] |  |  |  | Cell viability after oleic acid treatment (in words) (HepG2 cells [4]): no cytotoxicity; Induction of LDs (HepG2 cells [2]; 0.25 mM oleic acid, 24 h): 2.6 fold; Induction of LDs (HepG2 cells [2]; 0.5 mM oleic acid, 24 h): 2.8 fold
O=c1c(-c2ccc(O)cc2)coc2c([C@@H]3O[C@H](CO)[C@@H](O)[C@H](O)[C@H]3O)c(O)ccc12 [Puerarin] |  |  |  | Hepatic steatosis (HepG2 cells [5]): ameliorates hepatic steatosis
